Assay type in all cases: ADME, organism-based
Data set [1] can be described thus: MRT in ICR mouse at 15 mg/kg, iv administered and measured for 1 min to 12 hrs by LC/MS/MS analysis. Particulars: in vivo.
A short description of data set [2]: AUC (0 to t) in ICR mouse at 15 mg/kg, iv administered and measured for 1 min to 12 hrs by LC/MS/MS analysis. Particulars: in vivo.
Data set [3] can be described thus: AUC (0 to infinity) in ICR mouse at 15 mg/kg, iv administered and measured for 1 min to 12 hrs by LC/MS/MS analysis. Also noted: dose 15 mg/kg, time infinity, route intravenous. Particulars: in vivo.
The nature of data set [4]: Volume of distribution at steady state in ICR mouse at 15 mg/kg, iv administered and measured for 1 min to 12 hrs by LC/MS/MS analysis. As to conditions: in vivo, read-out: Vdss.
Data set [5] can be described thus: Cmax in ICR mouse at 15 mg/kg, iv administered and measured for 1 min to 12 hrs by LC/MS/MS analysis. Further details: dose 15 mg/kg, route intravenous. Particulars: in vivo.
Data set [6] can be described thus: Half life in ICR mouse at 15 mg/kg, iv administered and measured for 1 min to 12 hrs by LC/MS/MS analysis. Particulars: in vivo.

By MRT is commonly meant the average time that molecules of a dose stay in the body. By AUC(0-t) is commonly meant exposure summed from dosing to a finite time, without extrapolation to infinity. In general, AUC refers to the area under the concentration-time curve, a measure of exposure. Read a low AUC as low exposure. For orientation: Cmax means the peak of the concentration-time curve. The term half-life denotes how long it takes for the measured level to halve. A higher half-life goes with slow decline.

Take `CNc1nc(Nc2cnc(C#N)c(O[C@@H]3CCCNC3)c2)ncc1-c1cnn(C)c1`: the MRT in data set [1] came out at 0.8 h. The same molecule registered an AUC(0-t) in data set [2] of 363 ng·h/mL. Further, the AUC in data set [3] amounted to 370 ng·h/mL. Besides, in data set [4], the Vd amounted to 6.42 L/kg. The molecule also displayed a Cmax in data set [5] of 849 ng/mL. The molecule also had a half-life in data set [6] of 2.23 h.
